{"source": "the supplement of paper PMC10307832", "test_in_all_cases": "relative viability (nuclei count vs DMSO), 5 days (fraction); higher = more cells survive", "key": {"[1]": {"tested_on": "NCI-H2347", "procedure,_shortened": "(§1)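 Values are medians from duplicate plates. Each reflects relative viability, defined as the nuclei count of treated wells over that of vehicle wells. Lung cancer cell lines in 1536-well plates were pin-tool dosed one day after seeding with one drug alone or with a fixed anchor-drug dose plus five library-drug doses (not always all listed) in √10 steps, then fixed, stained and imaged at 4× after 5 days.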"}, "[2]": {"tested_on": "NCI-H460", "procedure,_shortened": "as §1"}, "[3]": {"tested_on": "A-427", "procedure,_shortened": "as §1"}, "[4]": {"tested_on": "SW 1573", "procedure,_shortened": "as §1"}, "[5]": {"tested_on": "NCI-H1563", "procedure,_shortened": "as §1"}, "[6]": {"tested_on": "201T", "procedure,_shortened": "as §1"}, "[7]": {"tested_on": "NCI-H1793", "procedure,_shortened": "as §1"}, "[8]": {"tested_on": "HCC-44", "procedure,_shortened": "as §1"}, "[9]": {"tested_on": "LU99A", "procedure,_shortened": "as §1"}, "[10]": {"tested_on": "LC-2-ad", "procedure,_shortened": "as §1"}, "[11]": {"tested_on": "LK-2", "procedure,_shortened": "as §1"}, "[12]": {"tested_on": "LCLC-103H", "procedure,_shortened": "as §1"}, "[13]": {"tested_on": "NCI-H2228", "procedure,_shortened": "as §1"}, "[14]": {"tested_on": "H3255", "procedure,_shortened": "as §1"}, "[15]": {"tested_on": "LCLC-97TM1", "procedure,_shortened": "as §1"}, "[16]": {"tested_on": "COR-L23", "procedure,_shortened": "as §1"}, "[17]": {"tested_on": "NCI-H23", "procedure,_shortened": "as §1"}, "[18]": {"tested_on": "PC-14", "procedure,_shortened": "as §1"}, "[19]": {"tested_on": "NCI-H596", "procedure,_shortened": "as §1"}, "[20]": {"tested_on": "NCI-H727", "procedure,_shortened": "as §1"}}, "data": [{"compound": "Nc1ccn([C@@H]2O[C@H](CO)[C@@H](O)[C@@H]2O)c(=O)n1", "note": "[Cytarabine] + C[C@]1(O)C[C@@H](c2nc(-c3ccc4ccc(-c5ccccc5)nc4c3)c3c(N)nccn32)C1 [Linsitinib] (partner 1 µM)", "values": [{"measurement": "relative viability", "setting": "[1]; first compound 0.005 µM", "result": 1.02}, {"measurement": "relative viability", "setting": "[1]; first compound 0.01581 µM", "result": 0.932}, {"measurement": "relative viability", "setting": "[1]; first compound 0.05 µM", "result": 0.822}, {"measurement": "relative viability", "setting": "[1]; first compound 0.1581 µM", "result": 0.32}, {"measurement": "relative viability", "setting": "[1]; first compound 0.5 µM", "result": 0.649}, {"measurement": "relative viability", "setting": "[2]; first compound 0.005 µM", "result": 0.509}, {"measurement": "relative viability", "setting": "[2]; first compound 0.01581 µM", "result": 0.514}, {"measurement": "relative viability", "setting": "[2]; first compound 0.05 µM", "result": 0.231}, {"measurement": "relative viability", "setting": "[2]; first compound 0.1581 µM", "result": 0.0385}, {"measurement": "relative viability", "setting": "[2]; first compound 0.5 µM", "result": 0.0239}, {"measurement": "relative viability", "setting": "[3]; first compound 0.005 µM", "result": 0.909}, {"measurement": "relative viability", "setting": "[3]; first compound 0.01581 µM", "result": 0.654}, {"measurement": "relative viability", "setting": "[3]; first compound 0.05 µM", "result": 0.342}, {"measurement": "relative viability", "setting": "[3]; first compound 0.1581 µM", "result": 0.181}, {"measurement": "relative viability", "setting": "[3]; first compound 0.5 µM", "result": 0.196}, {"measurement": "relative viability", "setting": "[4]; first compound 0.005 µM", "result": 0.831}, {"measurement": "relative viability", "setting": "[4]; first compound 0.01581 µM", "result": 0.664}, {"measurement": "relative viability", "setting": "[4]; first compound 0.05 µM", "result": 0.621}, {"measurement": "relative viability", "setting": "[4]; first compound 0.1581 µM", "result": 0.369}, {"measurement": "relative viability", "setting": "[4]; first compound 0.5 µM", "result": 0.149}, {"measurement": "relative viability", "setting": "[5]; first compound 0.005 µM", "result": 1.14}, {"measurement": "relative viability", "setting": "[5]; first compound 0.01581 µM", "result": 1.3}, {"measurement": "relative viability", "setting": "[5]; first compound 0.05 µM", "result": 1.04}, {"measurement": "relative viability", "setting": "[5]; first compound 0.1581 µM", "result": 1}, {"measurement": "relative viability", "setting": "[5]; first compound 0.5 µM", "result": 0.769}, {"measurement": "relative viability", "setting": "[6]; first compound 0.005 µM", "result": 1.1}, {"measurement": "relative viability", "setting": "[6]; first compound 0.01581 µM", "result": 1.02}, {"measurement": "relative viability", "setting": "[6]; first compound 0.05 µM", "result": 1.03}, {"measurement": "relative viability", "setting": "[6]; first compound 0.1581 µM", "result": 0.9}, {"measurement": "relative viability", "setting": "[6]; first compound 0.5 µM", "result": 0.886}, {"measurement": "relative viability", "setting": "[7]; first compound 0.005 µM", "result": 0.941}, {"measurement": "relative viability", "setting": "[7]; first compound 0.01581 µM", "result": 0.899}, {"measurement": "relative viability", "setting": "[7]; first compound 0.05 µM", "result": 0.89}, {"measurement": "relative viability", "setting": "[7]; first compound 0.1581 µM", "result": 0.732}, {"measurement": "relative viability", "setting": "[7]; first compound 0.5 µM", "result": 0.391}, {"measurement": "relative viability", "setting": "[8]; first compound 0.005 µM", "result": 0.675}, {"measurement": "relative viability", "setting": "[8]; first compound 0.01581 µM", "result": 0.664}, {"measurement": "relative viability", "setting": "[8]; first compound 0.05 µM", "result": 0.384}, {"measurement": "relative viability", "setting": "[8]; first compound 0.1581 µM", "result": 0.48}, {"measurement": "relative viability", "setting": "[8]; first compound 0.5 µM", "result": 0.397}, {"measurement": "relative viability", "setting": "[9]; first compound 0.005 µM", "result": 0.621}, {"measurement": "relative viability", "setting": "[9]; first compound 0.01581 µM", "result": 0.577}, {"measurement": "relative viability", "setting": "[9]; first compound 0.05 µM", "result": 0.561}, {"measurement": "relative viability", "setting": "[9]; first compound 0.1581 µM", "result": 0.508}, {"measurement": "relative viability", "setting": "[9]; first compound 0.5 µM", "result": 0.47}, {"measurement": "relative viability", "setting": "[10]; first compound 0.005 µM", "result": 0.851}, {"measurement": "relative viability", "setting": "[10]; first compound 0.01581 µM", "result": 0.79}, {"measurement": "relative viability", "setting": "[10]; first compound 0.05 µM", "result": 0.677}, {"measurement": "relative viability", "setting": "[10]; first compound 0.1581 µM", "result": 0.442}, {"measurement": "relative viability", "setting": "[10]; first compound 0.5 µM", "result": 0.223}, {"measurement": "relative viability", "setting": "[11]; first compound 0.005 µM", "result": 0.494}, {"measurement": "relative viability", "setting": "[11]; first compound 0.01581 µM", "result": 0.58}, {"measurement": "relative viability", "setting": "[11]; first compound 0.05 µM", "result": 0.247}, {"measurement": "relative viability", "setting": "[11]; first compound 0.1581 µM", "result": 0.215}, {"measurement": "relative viability", "setting": "[11]; first compound 0.5 µM", "result": 0.162}, {"measurement": "relative viability", "setting": "[12]; first compound 0.005 µM", "result": 0.976}, {"measurement": "relative viability", "setting": "[12]; first compound 0.01581 µM", "result": 1.22}, {"measurement": "relative viability", "setting": "[12]; first compound 0.05 µM", "result": 1.12}, {"measurement": "relative viability", "setting": "[12]; first compound 0.1581 µM", "result": 1.09}, {"measurement": "relative viability", "setting": "[12]; first compound 0.5 µM", "result": 1.18}, {"measurement": "relative viability", "setting": "[13]; first compound 0.005 µM", "result": 0.675}, {"measurement": "relative viability", "setting": "[13]; first compound 0.01581 µM", "result": 0.546}, {"measurement": "relative viability", "setting": "[13]; first compound 0.05 µM", "result": 0.492}, {"measurement": "relative viability", "setting": "[13]; first compound 0.1581 µM", "result": 0.152}, {"measurement": "relative viability", "setting": "[13]; first compound 0.5 µM", "result": 0.0885}, {"measurement": "relative viability", "setting": "[14]; first compound 0.005 µM", "result": 0.945}, {"measurement": "relative viability", "setting": "[14]; first compound 0.01581 µM", "result": 0.885}, {"measurement": "relative viability", "setting": "[14]; first compound 0.05 µM", "result": 0.808}, {"measurement": "relative viability", "setting": "[14]; first compound 0.1581 µM", "result": 0.784}, {"measurement": "relative viability", "setting": "[14]; first compound 0.5 µM", "result": 0.674}, {"measurement": "relative viability", "setting": "[15]; first compound 0.005 µM", "result": 0.167}, {"measurement": "relative viability", "setting": "[15]; first compound 0.01581 µM", "result": 0.148}, {"measurement": "relative viability", "setting": "[15]; first compound 0.05 µM", "result": 0.111}, {"measurement": "relative viability", "setting": "[15]; first compound 0.1581 µM", "result": 0.101}, {"measurement": "relative viability", "setting": "[15]; first compound 0.5 µM", "result": 0.0967}, {"measurement": "relative viability", "setting": "[16]; first compound 0.005 µM", "result": 0.787}, {"measurement": "relative viability", "setting": "[16]; first compound 0.01581 µM", "result": 0.806}, {"measurement": "relative viability", "setting": "[16]; first compound 0.05 µM", "result": 0.552}, {"measurement": "relative viability", "setting": "[16]; first compound 0.1581 µM", "result": 0.159}, {"measurement": "relative viability", "setting": "[16]; first compound 0.5 µM", "result": 0.122}, {"measurement": "relative viability", "setting": "[17]; first compound 0.005 µM", "result": 0.544}, {"measurement": "relative viability", "setting": "[17]; first compound 0.01581 µM", "result": 0.417}, {"measurement": "relative viability", "setting": "[17]; first compound 0.05 µM", "result": 0.294}, {"measurement": "relative viability", "setting": "[17]; first compound 0.1581 µM", "result": 0.157}, {"measurement": "relative viability", "setting": "[17]; first compound 0.5 µM", "result": 0.14}, {"measurement": "relative viability", "setting": "[18]; first compound 0.005 µM", "result": 0.967}, {"measurement": "relative viability", "setting": "[18]; first compound 0.01581 µM", "result": 0.862}, {"measurement": "relative viability", "setting": "[18]; first compound 0.05 µM", "result": 0.761}, {"measurement": "relative viability", "setting": "[18]; first compound 0.1581 µM", "result": 0.436}, {"measurement": "relative viability", "setting": "[18]; first compound 0.5 µM", "result": 0.464}, {"measurement": "relative viability", "setting": "[19]; first compound 0.005 µM", "result": 1.03}, {"measurement": "relative viability", "setting": "[19]; first compound 0.01581 µM", "result": 0.857}, {"measurement": "relative viability", "setting": "[19]; first compound 0.05 µM", "result": 0.763}, {"measurement": "relative viability", "setting": "[19]; first compound 0.1581 µM", "result": 0.658}, {"measurement": "relative viability", "setting": "[19]; first compound 0.5 µM", "result": 0.628}, {"measurement": "relative viability", "setting": "[20]; first compound 0.005 µM", "result": 0.251}, {"measurement": "relative viability", "setting": "[20]; first compound 0.01581 µM", "result": 0.254}, {"measurement": "relative viability", "setting": "[20]; first compound 0.05 µM", "result": 0.318}, {"measurement": "relative viability", "setting": "[20]; first compound 0.1581 µM", "result": 0.19}, {"measurement": "relative viability", "setting": "[20]; first compound 0.5 µM", "result": 0.215}]}]}
